The values that follow come from US5849735A, “Tricyclic benzazepine vasopressin antagonists” (American Cyanamid Company, priority 1995, dated 1998).

SMILES strings stand for the structures.

The target in test [1] is T1, vasopressin V1 receptor (rat liver plasma membranes) (Rattus norvegicus, UniProt P30560).
T1 construct: Rat liver plasma membranes expressing the vasopressin V1 receptor subtypes; from tissue; host or cells: rat liver plasma membranes
Kind of test: Binding Assay to Rat Hepatic V1 Receptors. The note with it: for inhibition at 1 µM: 2 h, rat hepatic V1. Here is the method: Binding Assay to Rat Hepatic V1 Receptors
Rat liver plasma membranes expressing the vasopressin V1 receptor subtypes are isolated by sucrose density gradient according to the method described by Lesko et al., (1973). These membranes are quickly suspended in 50.0 mM Tris.HCl buffer, pH 7.4, containing 0.2% bovine serum albumin (BSA) and 0.1 mM phenylmethylsulfonylfluoride (PMSF) and kept frozen at -70° C. until used in subsequent binding experiments. For binding experiments, the following is added to the wells of a ninety-six well format microtiter plate: […] of […] buffer containing 10.0 mM MgCl2, 0.2% heat inactivated BSA and a mixture of protease inhibitors: leupeptin, 1.0 mg %; aprotinin, 1.0 mg %; 1,10-phenanthroline,2.0 mg %; trypsin inhibitor, 10.0 mg % and 0.1 mM PMSF, 20.0 ml of [phenylalanyl-3,4,5, -^3 H] vasopressin (S.A. 45.1 Ci/mmole) […], and the reaction initiated by the addition of 80 ml of tissue membranes containing 20 mg of tissue protein. The plates are kept undisturbed on the bench top at room temperature for 120 min. to reach equilibrium. Non-specific samples are assayed in the presence of 0.1 mM of the unlabeled […] phenylalanylvasopressin, added in 20.0 ml volume.
For test compounds, these are solubilized in 50% dimethylsulfoxide (DMSO) and added in 20.0 ml volume to a final incubation volume of […]. Upon completion of binding, the content of each well is filtered off, using a Brandel® cell Harvester (Gaithersburg, Md.). The radioactivity trapped on the filter disk by the ligand-receptor complex is assessed by liquid scintillation counting in a Packard LS Counter, with an efficiency of 65% for tritium.

Test [2] concerns the target T2, vasopressin V2 receptor (rat kidney medullary) (Rattus norvegicus, UniProt Q00788).
T2 construct: Medullary tissues from rat kidneys are dissected out; from tissue; host or cells: rat kidney medulla membranes
Kind of test: Binding Assay to Rat Kidney Medullary V2 Receptors. Here is the method: Binding Assay to Rat Kidney Medullary V2 Receptors
Medullary tissues from rat kidneys are dissected out, cut into small pieces and soaked in a […] sodium chloride solution containing 1.0 mM EDTA with many changes of the liquid phase, until the solution is clear of blood. […] The tissue is homogenized in a 0.25M sucrose solution containing 1.0 mM EDTA and 0.1 mM PMSF using a Potter-Elvehjem homogenizer with a teflon pestle. The homogenate is filtered through several layers (4 layers) of cheese cloth. The filtrate is rehomogenized using a dounce homogenizer, with a tight fitting pestle. The final homogenate is centrifuged at 1500×g for 15 min. The nuclear pellet is discarded and the supernatant fluid recentrifuged at 40,000×g for 30 min. The resulting pellet formed contains a dark inner part with the exterior, slightly pink. The pink outer part is suspended in a small amount of 50.0 mM Tris.HCl buffer, pH 7.4. The protein content is determined by the Lowry's method (Lowry et al., J. Biol. Chem., 1953). The membrane suspension is stored at -70° C., in 50.0 mM Tris.HCl, containing 0.2% inactivated BSA and 0.1 mM PMSF in aliquots of 1.0 ml containing 10.0 mg protein per ml of suspension until sue in subsequent binding experiments.
For binding experiments, the following is added in ml volume to wells of a 96 well format of a microtiter plate: 100.0 ml of 100.0 mM Tris.HCl buffer containing 0.2% heat inactivated BSA, 10.0 mM MgCL2 and a mixture of protease inhibitors: leupeptin, 1.0 mg %; aprotinin, 1.0 mg % 1,10-phenanthroline, 2.0 mg %; trypsin inhibitor, and 0.1 mM PMSF, 20.0 ml of [^3 H] Arginine^8, vasopressin (S.A. 75.0 Ci/mmole) at 0.8 nM and the reaction initiated by the addition of 80.0 ml of tissue membranes (200.0 mg tissue protein). The plates are left undisturbed on the bench top for 120 minutes to reach equilibrium. Non-specific binding is assessed in the presence of 1.0 mM of unlabeled ligand, added in 20 ml volume. For test compounds, these are solubilized in 50% dimethylsulfoxide (DMSO) and added in 20.0 ml volume to a final incubation volume of […]. Upon completion of binding, the content of each well is filtered off, using a Brandel® cell Harvester (Gaithersburg, Md.). The radioactivity trapped on the filter disk by the ligand-receptor complex is assessed by liquid scintillation counting in a Parkard LS Counter, with an efficiency of 65% for tritium.

Test [3] concerns the target T3, oxytocin receptor (rat uteri) (Rattus norvegicus, UniProt P70536).
T3 construct: The uteri are dissected out, cleaned of fat and connective tissues; from tissue; host or cells: uteri of diethylstilbestrol-treated female Sprague-Dawley rats
T3 sequence (P70536 1-388): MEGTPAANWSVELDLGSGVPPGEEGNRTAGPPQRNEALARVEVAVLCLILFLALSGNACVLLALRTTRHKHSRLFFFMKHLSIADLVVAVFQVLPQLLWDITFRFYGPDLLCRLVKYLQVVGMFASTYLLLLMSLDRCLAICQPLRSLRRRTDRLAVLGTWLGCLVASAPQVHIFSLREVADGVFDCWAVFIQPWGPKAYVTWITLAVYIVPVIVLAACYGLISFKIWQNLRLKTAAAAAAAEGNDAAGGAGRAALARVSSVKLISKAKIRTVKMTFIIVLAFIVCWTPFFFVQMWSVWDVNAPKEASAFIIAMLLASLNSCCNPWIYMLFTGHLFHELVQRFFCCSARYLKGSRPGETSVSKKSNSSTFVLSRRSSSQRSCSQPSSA
Nature of the test: Oxytocin Receptor Binding. Also on record: species or system rat (Sprague-Dawley). Conditions: for IC50: [3H]oxytocin displacement. The procedure: Oxytocin Receptor Binding
Female Sprague-Dawley rats weighing approximately 200-250 g are injected intramuscularly (i.m.) with 0.3 mg/kg of body weight of diethylstilbestrol (DES). The rats are sacrificed 18 hours later under pentobarbital anesthesia. The uteri are dissected out, cleaned of fat and connective tissues and rinsed in 50 ml of normal saline. The tissue pooled from six rats is homogenized in 50 ml of […] Tris. HCl, containing 0.5 mM dithiothreitol and 1.0 mM EDTA, adjusted to pH 7.4, using a polytron at setting 6 with three passes of 10 sec each. The homogenate is passed through two (2) layers of cheesecloth and the filtrate centrifuged at 1000×g for 10 minutes. The clear supernatant is removed and recentrifuged at 165,000×g for 30 minutes. The resulting pellet containing the oxytocin receptors is resuspended in 50.0 mM Tris.HCl containing 5.0 mM MgCl2 at pH 7.4, to give a protein concentration of 2.5 mg/ml of tissue suspension. This preparation is used in subsequent binding assays with [^3 H]oxytocin.
Binding of 3,5-[^3 H]Oxytocin ([^3 H]OT) to its receptors is done in microtiter plates using [^3 H]OT, at various concentrations, in an assay buffer of 50.0 mM Tris.HCI, pH 7.4 and containing 5.0 mM MgCl2, and a mixture of protease inhibitors: BSA, 0.1 mg; aprotinin, 1.0 mg; 1,10-phenanthroline, 2.0 mg; […], 10.0 mg; and PMSF, 0.3 mg per 100 ml of buffer solution. Non-specific binding is determined in the presence of 1.0 uM unlabeled OT. The binding reaction is terminated after 60 minutes, at 22° C., by rapid filtration through glass fiber filters using a Brandel® cell harvester (Biomedical Research and Development Laboratories, Inc., Gaithersburg, Md.). Competition experiments are conducted at equilibrium using 1.0 nM [^3 H]OT and varying the concentration of the displacing agents. The concentrations of agent displacing 50% of [^3 H]OT at its sites (IC50) are calculated by a computer assisted LUNDON-2 program (LUNDON SOFTWARE INC., Ohio, USA).

In test [4] the test system is vasopressin V2. Kind of test: Vasopressin Antidiuretic (V2) Response in Conscious Rats with Free Access to Water Drinking Before But Not During the Experiment. The class given is in vivo, rat (Sprague-Dawley). Conditions: oral 10 mg/kg, N=2. An excerpt: Vasopressin Antidiuretic (V2) Response in Conscious Rats with Free Access to Water Drinking Before But Not During the Experiment Male or female normotensive Sprague-Dawley rats (Charles River Laboratories, Inc., Kingston, N.Y.) of 400-450 g of body weight were supplied with Laboratory Rodent Feed #5001 (PMI Feeds, Inc., Richmond, Ind.) and water ad libitum. On the day of test, rats were placed individually into metabolic cages equipped with stainless steel screens (to separate the feces from the urine) and funnels for collection of urine. Compounds, vehicle, or reference agent was given at various oral doses. During the test, rats were provided with no water or food. After dosing, urine was collected in graduated cylinders for four hours. Urine volume was measured. Urinary osmolality was determined using a Fiske One-Ten Osmometer (Fiske Associates, Norwood, Mass. 02062). An aliquot of each urine collection was analyzed for Na^+,K^+ and Cl^- using ion specific electrodes a in Beckman E3 (Electrolyte 3) analyzer. The vehicle used for testing compounds was 20% dimethylsulfoxide (DMSO) in 2.5% preboiled starch. Compounds were dissolved in DMSO and then diluted in 2.5% corn starch (final concentration of DMSO was 20%). All rats were orally dosed with this mixture at […], by gavage.

T1 sequence (P30560 whole entry): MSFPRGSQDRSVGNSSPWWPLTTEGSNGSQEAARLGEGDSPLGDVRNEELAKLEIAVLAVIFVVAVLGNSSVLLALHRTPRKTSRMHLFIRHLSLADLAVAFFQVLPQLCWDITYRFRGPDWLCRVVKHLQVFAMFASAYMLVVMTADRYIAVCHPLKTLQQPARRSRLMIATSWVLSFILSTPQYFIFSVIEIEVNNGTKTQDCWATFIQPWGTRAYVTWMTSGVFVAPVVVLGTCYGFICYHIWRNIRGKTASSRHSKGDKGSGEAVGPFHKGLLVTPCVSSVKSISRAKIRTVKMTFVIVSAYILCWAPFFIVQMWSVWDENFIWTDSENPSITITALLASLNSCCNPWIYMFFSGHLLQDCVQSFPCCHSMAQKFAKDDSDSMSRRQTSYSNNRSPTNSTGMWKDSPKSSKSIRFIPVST
T2 sequence (Q00788 whole entry): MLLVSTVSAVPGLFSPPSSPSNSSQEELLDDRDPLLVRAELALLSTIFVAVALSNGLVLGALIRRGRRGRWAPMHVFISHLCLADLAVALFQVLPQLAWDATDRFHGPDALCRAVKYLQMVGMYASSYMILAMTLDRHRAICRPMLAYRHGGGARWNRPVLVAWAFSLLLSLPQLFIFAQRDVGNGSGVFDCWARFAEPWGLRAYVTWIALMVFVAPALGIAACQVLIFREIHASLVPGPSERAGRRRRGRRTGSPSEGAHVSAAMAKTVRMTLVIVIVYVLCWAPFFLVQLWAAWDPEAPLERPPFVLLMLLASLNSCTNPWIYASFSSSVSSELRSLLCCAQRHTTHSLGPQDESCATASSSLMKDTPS

For `Cc1ccc(F)cc1C(=O)Nc1ccc(C(=O)N2Cc3ccccc3Oc3ccccc32)cn1` [Example 1, N-[5-(Dibenz[b,f][1,4]oxazepin-10(11H)-ylcarbonyl)-2-pyridinyl]-5-fluoro-2-methylbenzamide], the IC50 was 240 nM in test [1] (rat hepatic V1 receptors) and 54 nM in test [2] (rat kidney medullary V2 receptors). For the same molecule, in test [3] (dose 1 μM), testing at 1 µM gave an inhibition of 12%.

For `O=C(Nc1ccc(C(=O)N2Cc3ccccc3Cc3ccccc32)cn1)c1ccccc1-c1ccccc1` [Example 12, N-[5-[(6,11-Dihydro-5H-dibenz[b,e]azepin-5-yl)carbonyl]-2-pyridinyl][1,1'-biphenyl]-2-carboxamide], in test [1], the inhibition at 1 µM worked out at 100%. In addition, the “V2 %” value in test [2] (rat kidney V2, "at μM" (concentration not given)) was found to be 90%. In test [3], the IC50 was determined as 610 nM and the inhibition at 10 µM stood at 76%.

`O=C(c1ccc(-c2ccccc2)cc1)N1Cc2ccccc2Nc2ccccc21` [Example 25]: the inhibition at 1 µM in test [1] was found to be 100%; in test [2] (rat kidney V2, at 1 μM) it was 39%. The IC50 in test [3] came to 113 nM. Further, in test [3], the inhibition at 10 µM stood at 94%.

Regarding `O=C(Nc1ccc(C(=O)N2Cc3ccccc3Cc3ccccc32)c(Cl)c1)c1ccccc1-c1ccccc1` [Example 302, N-[4-[(6,11-Dihydro-5H-dibenz[b,e]azepin-5-yl)carbonyl]-3-chlorophenyl][1,1'-biphenyl]-2-carboxamide], in test [4], the Osmolality stood at 356 MOsm/kg and the “Urine Volume” value is on record as 40 ml/4 hrs.

`Cc1ccc(F)cc1C(=O)Nc1ccc(C(=O)N2Cc3ccccc3Nc3ncccc32)cn1` [Example 352, N-[5-[(6,11-Dihydro-5H-pyrido[2,3-b][1,4]benzodiazepin-5-yl)carbonyl]-2-pyridinyl]-5-fluoro-2-methylbenzamide]: in test [4], the Osmolality worked out at 779 MOsm/kg and the “Urine Volume” value is recorded as 9.3 ml/4 hrs.

Take `O=C(Nc1ccc(C(=O)N2CCc3cn[nH]c3-c3ccccc32)cc1)c1ccccc1-c1ccccc1` [Example 396]: in test [4], the Osmolality is listed as 238 MOsm/kg and the “Urine Volume” value amounted to 21.8 ml/4 hrs.

For `O=C(Nc1ccc(C(=O)N2CCc3cn[nH]c3-c3ccccc32)c(Cl)c1)c1ccccc1-c1ccccc1` [Example 397], in test [4], the Osmolality was determined as 288 MOsm/kg and the “Urine Volume” value is 29.8 ml/4 hrs.

With `O=C(Nc1ccc(C(=O)N2CCc3cn[nH]c3-c3ccccc32)cn1)c1ccccc1-c1ccccc1` [Example 398, N-[5-[(4,5-Dihydropyrazolo[4,3-d][1]benzazepin-6(1H)-yl)carbonyl]-2-pyridinyl][1,1'-biphenyl]-2-carboxamide], in test [4], the Osmolality was determined as 316 MOsm/kg and the “Urine Volume” value came out at 20.5 ml/4 hrs.

Take `Cc1ccc(F)cc1C(=O)Nc1ccc(C(=O)N2CCc3cn[nH]c3-c3ccccc32)cn1` [Example 399, N-[5-[(4,5-Dihydropyrazolo[4,3-d][1]benzazepin-6(1H)-yl)carbonyl]-2-pyridinyl]-5-fluoro-2-methylbenzamide]: in test [4], the Osmolality was 404 MOsm/kg and the “Urine Volume” value came out at 17.0 ml/4 hrs.

In the case of `Cc1ccc(F)cc1C(=O)Nc1ccc(C(=O)N2Cc3cscc3Nc3ccccc32)cn1` [Example 400], in test [4], the Osmolality is 270 MOsm/kg and the “Urine Volume” value was 24.8 ml/4 hrs.

Turning to `O=C(c1ccc(-c2cccs2)cc1)N1Cc2ccccc2Nc2ccccc21` [Example 404, 5,11-Dihydro-10-[4-(2-thienyl)benzoyl]-10H-dibenz[b,e][1,4]diazepine], in test [4], the Osmolality is listed as 909 MOsm/kg and the “Urine Volume” value was 6 ml/4 hrs.
